Measured values as given in the supplement of paper PMC11061612.

Key:
Experiment in all cases: Bliss excess, mean over the matrix (fraction); higher = more synergy
[1] = tested on: LU-139 (Small Cell Lung Carcinoma)
In short: (§1)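 Bliss excess equals the observed combination effect minus the expected value EA + EB − EA·EB, where EA and EB are the effects of each agent alone. Combination Emax is the second-highest inhibition within the matrix. Inhibition was scaled from CellTiter-Glo 2.0 luminescence, with 0 set by vehicle wells and 1 by blank wells, after 72 hours of two-drug dosing of cells plated in 1536-well plates.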

[2] = tested on: HDLM-2 (Hodgkin's Lymphoma)
In short: as §1

[3] = tested on: HARA (Squamous Cell Lung Carcinoma)
In short: as §1

COLO-829 (Melanoma) = tested on: COLO-829 (Melanoma)
In short: as §1

[4] = tested on: TE-4 (Esophageal Squamous Cell Carcinoma)
In short: as §1

[5] = tested on: KARPAS-231 (B-Cell Non-Hodgkin's Lymphoma)
In short: as §1

[6] = tested on: SK-OV-3 (Ovarian Carcinoma)
In short: as §1

[7] = tested on: MHH-PREB-1 (B-Cell Non-Hodgkin's Lymphoma)
In short: as §1

[8] = tested on: SW626 (Colorectal Carcinoma)
In short: as §1

[9] = tested on: NCI-H747 (Colorectal Carcinoma)
In short: as §1

[10] = tested on: KYSE-410 (Esophageal Squamous Cell Carcinoma)
In short: as §1

[11] = tested on: CAL-54 (Kidney Carcinoma)
In short: as §1

Mewo (Melanoma) = tested on: Mewo (Melanoma)
In short: as §1

[12] = tested on: OVCAR-8 (Ovarian Carcinoma)
In short: as §1

[13] = tested on: MDA-MB-468 (Breast Carcinoma)
In short: as §1

[14] = tested on: NCI-H69 (Small Cell Lung Carcinoma)
In short: as §1

NB14 (Neuroblastoma) = tested on: NB14 (Neuroblastoma)
In short: as §1

NCI-H28 (Mesothelioma) = tested on: NCI-H28 (Mesothelioma)
In short: as §1

[15] = tested on: LoVo (Colorectal Carcinoma)
In short: as §1

[16] = tested on: SUP-T1 (T-Lymphoblastic Leukemia)
In short: as §1

Row | Compound | Bliss excess [1] | Bliss excess [2] | Bliss excess [3] | Bliss excess (COLO-829 (Melanoma)) | Bliss excess [4] | Bliss excess [5] | Bliss excess [6] | Bliss excess [7] | Bliss excess [8] | Bliss excess [9] | Bliss excess [10] | Bliss excess [11] | Bliss excess (Mewo (Melanoma)) | Bliss excess [12] | Bliss excess [13] | Bliss excess [14] | Bliss excess (NB14 (Neuroblastoma)) | Bliss excess (NCI-H28 (Mesothelioma)) | Bliss excess [15] | Bliss excess [16]
1 | COc1cc2c(cc1OCCCCCOc1cc3c(cc1OC)C(=O)N1C=C(C)C[C@H]1C=N3)N=C[C@@H]1CC(C)=CN1C2=O [SG3199] + O=C(c1cc(Cc2n[nH]c(=O)c3ccccc23)ccc1F)N1CCN(C(=O)C2CC2)CC1 [Olaparib] (first compound max 0.001 µM, 7x7, partner max 10 µM) | -0.0196 | -0.0444 | -0.0066 | -0.0476 | -0.0319 | 0.0289 | -0.0477 | -0.0025 | -0.0362 | -0.0269 | -0.0334 | -0.0488 | -0.0489 | -0.0295 | -0.0971 | -0.0136 | -0.0283 | -0.0556 | -0.0455 | -0.0478
2 | NC1(C(=O)N[C@@H](CCO)c2ccc(Cl)cc2)CCN(c2ncnc3[nH]ccc23)CC1 [Capivasertib] + CCN(CCO)CCCOc1ccc2c(Nc3cc(CC(=O)Nc4cccc(F)c4)[nH]n3)ncnc2c1 [AZD2811] (first compound max 10 µM, 7x7, partner max 1 µM) | 0.0616 | 0.0228 | 0.0137 | 0.0142 | 0.0241 | -0.111 | -0.0301 | -0.0306 | -0.0338 | -0.0255 | -0.0104 | -0.0357 | 0.0228 | 0.001 | -0.063 | 0.0132 | -0.03 | -0.0484 | -0.0387 | 0.0016
3 | CN(C)CCCOc1ccc(-c2ccc3ncc4c(c3c2)n(C2CCOCC2)c(=O)n4C)cn1 [AZD0156] + C=CCn1c(=O)c2cnc(Nc3ccc(N4CCN(C)CC4)cc3)nc2n1-c1cccc(C(C)(C)O)n1 [AZD1775] (first compound max 1 µM, partner max 1 µM) | -0.0479 | -0.0554 | -0.007 | -0.0486 | -0.0599 | 0.0355 | -0.0433 | 0.0036 | -0.0576 | -0.0309 | -0.0464 | -0.043 | -0.05 | -0.0053 | -0.0449 | -0.129 | -0.0198 | -0.0066 | -0.0533 | -0.0251
4 | COc1cccc(OCCCN)c1-c1cc(Nc2cnc(C#N)cn2)n[nH]1 [Prexasertib] + C[C@@H]1COCCN1C2=NC(=NC(=C2)C3(CC3)[S@](=N)(=O)C)C4=C5C=CNC5=NC=C4 [AZD6738] (first compound max 1 µM, 7x7, partner max 10 µM) | 0.0339 | -0.0669 | -0.0117 | 0.001 | 0.0058 | -0.0498 | -0.0412 | -0.0643 | 0.007 | -0.0294 | -0.0548 | -0.0883 | -0.0403 | -0.0151 | -0.0106 | -0.0356 | 0.0092 | -0.0062 | -0.0296 | -0.0374
5 | Cc1cc2ncnn2cc1Nc1ncc2c(n1)n(C1CCOCC1)c(=O)n2C [AZD7648] + CN(C)CCCOc1ccc(-c2ccc3ncc4c(c3c2)n(C2CCOCC2)c(=O)n4C)cn1 [AZD0156] (first compound max 10 µM, 7x7, partner max 1 µM) | -0.0306 | -0.0381 | 0.0352 | -0.0203 | 0.0139 | 0.0157 | -0.0289 | 0.118 | 0.0225 | 0.0253 | -0.0059 | -0.0384 | 0.0033 | 0.0245 | 0.0032 | -0.044 | 0.0053 | -0.0195 | -0.0469 | -0.0241
6 | COc1cccc(OCCCN)c1-c1cc(Nc2cnc(C#N)cn2)n[nH]1 [Prexasertib] + CCc1c2c(nc3ccc(O)cc13)-c1cc3c(c(=O)n1C2)COC(=O)[C@]3(O)CC [SN-38] (first compound max 1 µM, 7x7, partner max 0.3 µM) | -0.0118 | -0.0701 | 0.0262 | 0.0036 | 0.107 | -0.0111 | -0.0344 | 0.0153 | -0.0156 | 0.0283 | -0.0192 | -0.115 | 0.0881 | 0.0373 | -0.0015 | 0.162 | 0.0073 | -0.074 | -0.0727 | -0.152
7 | C[C@@H]1COCCN1c1cc(C2([S@](C)(=N)=O)CC2)nc(-c2ccnc3[nH]ccc23)n1 [AZD6738] + O=C(c1cc(Cc2n[nH]c(=O)c3ccccc23)ccc1F)N1CCN(C(=O)C2CC2)CC1 [Olaparib] (first compound max 10 µM, 7x7, partner max 10 µM) | 0.0115 | -0.0437 | 0.033 | -0.0067 | 0.0082 | -0.0708 | -0.0222 | -0.0405 | -0.0022 | 0.0096 | -0.0219 | 0.045 | -0.0368 | 0.0495 | -0.0227 | -0.0283 | -0.0072 | 0.011 | -0.0084 | -0.0289
